Values of other authors, collected in US20060067952A1, “Low oil emulsion compositions for delivering taxoids and other insoluble drugs” (SD Pharmaceuticals, Inc., priority 2004, published 2006).
Read-outs that look alike come from different tables or passages of the source.

Details: 25° C.

In the case of `CC(=O)Oc1ccccc1C(=O)O` [aspirin], the “Volume of solvent required to dissolve 1 gram of the drug” value (H2O) is listed as 300 mL and the “Volume of solvent required to dissolve 1 gram of the drug” value (ethanol) is listed as 5 mL.
